Measurements from paper PMC10396955, “2-Oxabicyclo[2.1.1]hexanes as saturated bioisosteres of the ortho-substituted phenyl ring” (Nature Chemistry, 2023).
≈ marks a conversion by molar mass, not a printed value. Where two headings read alike, the source gives them in different places.

Legend:
[1] = Kinetic solubility in phosphate-buffered saline, pH 7.4; format: physicochemical; details: for solubility at 2 h: phosphate-buffered saline, 25 °C, pH 7.4, aqueous buffer, kinetic from dmso stock
Protocol: Analysis of Aqueous Solubility […]
compound (Ondansetron) were assessed for kinetic solubility in phosphate-buffered saline, pH […]
Phosphate buffered saline, pH 7.4 (Sigma-Aldrich, USA; Cat #P3813) […]
MultiScreen HTS 96 Well Filter Plates (Millipore, Ireland; Cat # MSGVS2210) […]
Matrix Multichannel Electronic Pipette 2-125 µL, 5-250 µL, 15-1250 µL (Thermo Scientific, […]
Vacuum pump (Millipore, USA; Model # XX5500000)
The measurements were performed using SpectraMax Plus reader in UV-Vis mode. Acquisition and analysis of the data were performed using SoftMax Pro v.5.4 (Molecular Devices) and Excel […]
Kinetic solubility assay was performed according to the Enamine’s aqueous solubility SOP.
Briefly, using a 20 mM stock solution of the compound in 100% DMSO dilutions were prepared to a theoretical concentration of 400 μM in duplicates in phosphate-buffered saline pH 7.4 […]
for two hours and then filtered through HTS filter plates using a vacuum manifold. The filtrates of test compounds were diluted 2-fold with acetonitrile with 2% DMSO before measuring.
In parallel, compound dilutions in acetonitrile/PBS (1:1) were prepared to theoretical […]
DMSO to generate calibration curves. Ondansetron was used as reference compound to control proper assay performance. 200 μl of each sample was transferred to 96-well plate and measured in 200-550 nm range with 5 nm step.
The concentrations of compounds in PBS filtrate are calculated using a dedicated Microsoft Excel calculation script. Proper absorbance wavelengths for calculations are selected for each compound manually based on absorbance maximums (absolute absorbance unit values for the minimum and maximum concentration points within 0 – 3 OD range). Each of the final datasets is additionally visually evaluated by the operator and goodness of fit (R2) is calculated for each calibration curve. The effective range of this assay is approximately 2-400 μM and the […]

Fusarium oxysporum = assay: Antifungal activity, agar well diffusion method; format: cell-based; details: for zone of inhibition at 3.9 µg/mL / zone of inhibition at […] / zone of inhibition at 15.6 µg/mL / zone of inhibition at 31.25 µg/mL / zone of inhibition at 62.5 µg/mL / zone of inhibition at 125 µg/mL / zone of inhibition at 250 µg/mL / zone of inhibition at 500 µg/mL / zone of inhibition at 1000 µg/mL: Fusarium oxysporum, zones st (static growth), read-out: Diameter of inhibition zone; for zone of inhibition at 3.9 µg/mL: 0.0039 mg/mL; for zone of inhibition at […]: 0.0078 mg/mL; for zone of inhibition at 15.6 µg/mL: 0.0156 mg/mL; for zone of inhibition at 31.25 µg/mL: 0.03125 mg/mL; for zone of inhibition at 62.5 µg/mL: 0.0625 mg/mL; for zone of inhibition at 125 µg/mL: 0.125 mg/mL; for zone of inhibition at 250 µg/mL: 0.25 mg/mL; for zone of inhibition at 500 µg/mL: 0.5 mg/mL; for zone of inhibition at 1000 µg/mL: 1 mg/mL, 40 µl per well, 25 °C, 72 h; for lowest inhibition concentration: agar well diffusion, tested 0.0039-1.0 mg/mL
Description: (§1) The agar well diffusion method is widely used to evaluate the antimicrobial activity of different substances (S. Magaldi, S. Mata-Essayag, C. Hartung de Capriles, et al. Well diffusion for antifungal susceptibility testing, Int. J. Infect. Dis. 8, 2004 , 39–45; C. Valgas, S. M. De Souza, E. F. A. Smânia, et al. Screening methods to determine antibacterial activity of natural products. Braz. J. Microbiol. 38 , 2007 , 369–380). Similarly to the procedure used in a disk-diffusion method, the agar plate surface is inoculated by spreading a volume of the microbial inoculum over the entire agar surface. Then, a hole with a diameter of 6 to 8 mm is punched aseptically with a sterile cork borer or a tip, and a volume […] of the antimicrobial agent or extract solution at desired concentration is introduced into the well. Then, agar plates are incubated under suitable conditions depending upon the test microorganism. The antimicrobial agent diffuses in the agar medium and inhibits the growth of the microbial strain tested (M. Balouiri, M. Sadiki, S. K. Ibnsouda. Methods for in vitro evaluating […]
(§2) Agar well diffusion method is a qualitative method used to measure the ability of compounds to inhibit microbial growth. This test is a quick and easy way to measure and compare levels of inhibitory […]
(§3) Antifungal activity of the synthetic compounds using agar well diffusion The compunds were tested towards plant pathogens Fusarium oxysporum Schltdl. and F. verticillioides (Sacc.) Nirenberg isolated from crops. Antifungal activity of the synthetic compounds was evaluated with using of an agar well diffusion method based on a disk diffusion assay for testing filamentous fungi (CLSI M51-A) [CLSI. Method for Antifungal Disk Diffusion Susceptibility Testing of Nondermatophyte Filamentous Fungi; Approved Guideline.CLSI document M51-A. Wayne, PA:
(§4) Clinical and Laboratory Standards Institute; 2010. This method is standardized for Altenaria , Aspergillus, Bipolaris , Fusarium , order Mucorales etc.
(§5) Preparation of synthetic compounds for mycological assay
(§6) Solutions of fungicides and its analogs were diluted in dimethyl sulfoxide (DMSO) to produce the […]
(§7) Antifungal well diffusion method
(§8) The fungal strains were cultured on potato dextrose agar slants (PDA, Eur. Pharm.) and incubated at 25 °C for 5 days. Sterile distilled water was used to cover and resuspend the colonies. Suspension of […]
(§9) conidia was adjusted to inoculums 5×10^6 conidia/mL. The suspension was further diluted in warm PDA 1:10 to obtain final working inoculums 5×10^5 conidia/mL.
(§10) Polypropylene cylinders (d, 5 mm) were placed on the surface and wells punched in the medium were used as reservoir of the test substances in different concentrations. 40 µl of solutions containing 0.0039-1.0 mg/mL of a test compound was added into the wells.
(§11) Each compound was tested in triplicate at different concentrations. Growth control was a well with 40 µl of DMSO, which was used for test components dilution.
(§12) Plates incubated at 25 °C for 72 h. The test compounds at known concentration into contact with an inoculated medium then exerts a growth-inhibiting effect then a clear zone (the zone of inhibition) appears around the test product. Diameter of a clear zone around the well is measured at the end of the incubation period in millimeters. If the fungal strain is susceptible to the antifungal agent, then a zone of inhibition appears on the agar plate. If it is resistant to the test compound, then no zone is evident.
(§13) The size of the zone of inhibition is usually related to the level of antifungal activity present in the […]
(§14) The growth rate of Fusarium oxysporum and F. verticillioides for each well was determined visually and compared with the growth of control.
(§15) As shown in the table the antifungal activity of the 6 compounds, - Fluxapyroxad, compound 28, compound 29, Boscalid, compound 30, compound 31, - were tested against plant pathogenic fungal […]
(§16) toward Fusarium oxysporum (Table S5, Figure S16). Inhibition zones of all compounds characterized […]

Fusarium verticillioides = assay: Antifungal activity, agar well diffusion method; format: cell-based; details: for zone of inhibition at 3.9 µg/mL / zone of inhibition at […] / zone of inhibition at 15.6 µg/mL / zone of inhibition at 31.25 µg/mL / zone of inhibition at 62.5 µg/mL / zone of inhibition at 125 µg/mL / zone of inhibition at 250 µg/mL / zone of inhibition at 500 µg/mL / zone of inhibition at 1000 µg/mL: Fusarium verticillioides, 0 = absence of antifungal activity, read-out: Diameter of inhibition zone; for zone of inhibition at 3.9 µg/mL: 0.0039 mg/mL; for zone of inhibition at […]: 0.0078 mg/mL; for zone of inhibition at 15.6 µg/mL: 0.0156 mg/mL; for zone of inhibition at 31.25 µg/mL: 0.03125 mg/mL; for zone of inhibition at 62.5 µg/mL: 0.0625 mg/mL; for zone of inhibition at 125 µg/mL: 0.125 mg/mL; for zone of inhibition at 250 µg/mL: 0.25 mg/mL; for zone of inhibition at 500 µg/mL: 0.5 mg/mL; for zone of inhibition at 1000 µg/mL: 1 mg/mL, 40 µl per well, 25 °C, 72 h
Description: as §1, §2, §3, §4, §5, §6, §7, §8, §9, §10, §11, §12, §13, §14, §15, §16

[2] = Table S1, incubation 1, read-out: PBS solubility, pH 7.4, Incubation 1
[3] = Table S1, incubation 2, read-out: PBS solubility, pH 7.4, Incubation 2
[4] = experimental kinetic solubility in phosphate-buffered saline at pH 7.4, Fig. 3, read-out: Solubility

Compound | solubility at 2 h [1, 2] [µM] | solubility at 2 h [1, 3] [µM] | solubility at 2 h [1, 4] [µM] | zone of inhibition at 3.9 µg/mL (Fusarium oxysporum) [mm] | zone of inhibition at […] (Fusarium oxysporum) [mm] | zone of inhibition at 15.6 µg/mL (Fusarium oxysporum) [mm] | zone of inhibition at 31.25 µg/mL (Fusarium oxysporum) [mm] | zone of inhibition at 62.5 µg/mL (Fusarium oxysporum) [mm] | zone of inhibition at 125 µg/mL (Fusarium oxysporum) [mm] | zone of inhibition at 250 µg/mL (Fusarium oxysporum) [mm] | zone of inhibition at 500 µg/mL (Fusarium oxysporum) [mm] | zone of inhibition at 1000 µg/mL (Fusarium oxysporum) [mm] | lowest inhibition concentration (Fusarium oxysporum) [mg/mL] | zone of inhibition at 3.9 µg/mL (Fusarium verticillioides) [mm] | zone of inhibition at […] (Fusarium verticillioides) [mm] | zone of inhibition at 15.6 µg/mL (Fusarium verticillioides) [mm] | zone of inhibition at 31.25 µg/mL (Fusarium verticillioides) [mm] | zone of inhibition at 62.5 µg/mL (Fusarium verticillioides) [mm] | zone of inhibition at 125 µg/mL (Fusarium verticillioides) [mm] | zone of inhibition at 250 µg/mL (Fusarium verticillioides) [mm] | other results
O=C(N[C@@H]1[C@@H]2CC[C@@]1(c1ccc(Cl)cc1)C2)c1cccnc1Cl (relative stereo) [Compound 30] | 17 (≈ 5.9 µg/mL) | 18 (≈ 6.25 µg/mL) | 17 ± 0.3 (≈ 5.9 µg/mL) | 16 ± 1.2 | 19 ± 1.2 | 20 ± 1.5 | 25 ± 0.6 | 25 | 30 | 30 | 30 | 30 | < 0.0039 | 11 ± 1.2 | 19 ± 1.2 | 25 ± 0.6 | 30 ± 0.6 | 31 ± 1 | 36 ± 1.7 | 41 ± 1.2 | increase of solubility relative to boscalid ([1]; kinetic solubility, PBS pH 7.4): ~ 50%; solubility at 2 h ([1]; Table S1, mean of 2 incubations, 2 h, 2% DMSO, effective range approx. 2-400 μM, read-out: PBS solubility, pH 7.4, Mean): 17 µM (≈ 5.9 µg/mL); zone of inhibition at 500 µg/mL (Fusarium verticillioides): 46 ± 1.7 mm; zone of inhibition at 1000 µg/mL (Fusarium verticillioides): 49 ± 1.2 mm; lowest inhibition concentration (Fusarium verticillioides; agar well diffusion, tested 0.0039-1.0 mg/mL): < 0.0039 mg/mL
O=C(N[C@@H]1[C@H]2C[C@]1(c1ccc(Cl)cc1)CO2)c1cccnc1Cl (relative stereo) [Compound 31] | 148 (≈ 51.7 µg/mL) | 157 (≈ 54.8 µg/mL) | 152 (≈ 53.1 µg/mL) | 8 ± 0.6 | 9 ± 0.6 | 14 ± 1 | 16 ± 1 | 18 ± 0.6 | 19 ± 1 | 18 ± 1 | 21 ± 1 | 25 ± 0.6 | 0.0039 | 0 | 0 | 0 | 0 | 0 | 10 ± 0.6 | 16 ± 1.2 | zone of inhibition at 500 µg/mL (Fusarium verticillioides): 23 ± 1.5 mm; zone of inhibition at 1000 µg/mL (Fusarium verticillioides): 29 ± 1.2 mm
